Laboratory results: BindingDB's records for doi:10.7270/Q24M92ZV (Nmmlsc, 2009)

biological target: Ras-related C3 botulinum toxin substrate 1 (Mus musculus, UniProt P63001); test: activated mutant Rac1 GTP binding inhibitors, SAR follow-up, biochemical, additional analogs, multiplex bead flow cytometry (AID 2039)

`O=C1Nc2c(Cl)cccc2C1=C1Nc2ccccc2C1=O` and `O=C1Nc2c(Br)cccc2C1=C1Nc2ccccc2C1=O` are within 1.5-fold of each other in EC50: 30 µM for the first, 27.6 µM for the second.

`O=C1Nc2c(F)cccc2C1=C1Nc2ccccc2C1=O` and `O=C1Nc2ccccc2/C1=C1/Nc2ccccc2C1=O` [2-[(3Z)-2-oxo-2,3-dihydro-1H-indol-3-ylidene]-2,3-dihydro-1H-indol-3-one] are the same in EC50: 30 µM for the first, 30 µM for the second.

First: O=C1NC(=O)/C(=C2/C(=O)Nc3ccccc32)N1
Second: O=C1NC(=S)N/C1=C1\C(=O)Nc2ccccc21 [(3Z)-3-(5-oxo-2-sulfanylideneimidazolidin-4-ylidene)-1H-indol-2-one]
The EC50 of the first is 1.7-fold higher: 11.6 µM for the first, 7 µM for the second. The second is the more potent here.

Compared with `O=C1Nc2ccc(Br)cc2C1=C1Nc2ccccc2C1=O`, `O=C1N=c2ccc(Br)cc2=C1c1[nH]c2ccccc2c1NO` [5-bromanyl-3-[3-(oxidanylamino)-1H-indol-2-yl]indol-2-one] is 2.7-fold higher in EC50: 12.2 µM for the first, 32.7 µM for the second.

`O=C1N=c2ccccc2=C1c1[nH]c2ccccc2c1NO` [3-[3-(hydroxyamino)-1H-indol-2-yl]-2-indolone] and `O=C1N=c2c(Br)cccc2=C1c1[nH]c2ccccc2c1NO` [7-bromanyl-3-[3-(oxidanylamino)-1H-indol-2-yl]indol-2-one] are the same in EC50: 30 µM for the first, 30 µM for the second.

`O=C1N=c2c(Cl)cccc2=C1c1[nH]c2ccccc2c1NO` [7-chloro-3-[3-(hydroxyamino)-1H-indol-2-yl]-2-indolone] and `O=C1N=c2c(F)cccc2=C1c1[nH]c2ccccc2c1NO` [7-fluoro-3-[3-(hydroxyamino)-1H-indol-2-yl]-2-indolone] are within 1.5-fold of each other in EC50: 30 µM for the first, 31.6 µM for the second.
